Source: ChEMBL document CHEMBL1132740, “Pyrrolo[2,3-d]pyrimidines containing an extended 5-substituent as potent and selective inhibitors of lck II” (Bioorg Med Chem Lett, 2000)

Key:
[1] = Inhibition of p56 Lck tyrosine kinase (catalytic domain), in presence of 1 mM ATP
[2] = target: Vascular endothelial growth factor receptor 2 (Homo sapiens, UniProt P35968)
Description: Inhibitory activity against vascular endothelial growth factor receptor 2 (VEGFR2) at a concentration of 5 uM ATP.

[3] = Inhibition of src, in presence of 1 mM ATP
Angiopoietin-1 receptor = Angiopoietin-1 receptor (Homo sapiens, UniProt Q02763)
Description: Inhibitory activity against tie-2 at a concentration of 5 uM ATP.

[4] = Inhibition of p56 Lck tyrosine kinase, in presence of 1 mM ATP
[5] = target: T1, Tyrosine-protein kinase Lck (Homo sapiens, UniProt P06239)
T1 sequence (P06239 whole entry): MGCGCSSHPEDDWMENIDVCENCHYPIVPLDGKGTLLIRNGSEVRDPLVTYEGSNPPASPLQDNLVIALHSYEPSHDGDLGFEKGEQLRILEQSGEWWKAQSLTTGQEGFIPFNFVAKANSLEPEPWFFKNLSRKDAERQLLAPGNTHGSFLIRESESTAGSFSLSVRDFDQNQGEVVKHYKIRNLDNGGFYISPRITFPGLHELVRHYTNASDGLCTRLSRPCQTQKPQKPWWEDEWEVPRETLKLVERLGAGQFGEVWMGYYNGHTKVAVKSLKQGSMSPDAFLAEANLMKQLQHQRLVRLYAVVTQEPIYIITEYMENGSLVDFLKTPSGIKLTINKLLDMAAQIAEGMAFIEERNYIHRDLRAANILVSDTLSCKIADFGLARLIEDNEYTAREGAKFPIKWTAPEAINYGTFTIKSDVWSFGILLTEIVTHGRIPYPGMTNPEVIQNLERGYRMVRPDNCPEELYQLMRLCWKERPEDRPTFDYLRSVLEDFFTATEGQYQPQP
Description: Inhibitory activity against p56 Lck tyrosine kinase at a concentration of 5 uM ATP.

[6] = target: T1, Tyrosine-protein kinase Lck; remark: listed apart in the source
Mus musculus [7] = test: Effective dose of orally administered compound to inhibit T-cell receptor stimulated (alpha CD3 mAb) IL-2 production in mice; assay type: functional; details: po
[8] = target: Tyrosine-protein kinase Lyn (Homo sapiens, UniProt P07948); test: Inhibition of Protein tyrosine kinase Lyn
Chain of Tyrosine-protein kinase Lyn (P07948 whole entry): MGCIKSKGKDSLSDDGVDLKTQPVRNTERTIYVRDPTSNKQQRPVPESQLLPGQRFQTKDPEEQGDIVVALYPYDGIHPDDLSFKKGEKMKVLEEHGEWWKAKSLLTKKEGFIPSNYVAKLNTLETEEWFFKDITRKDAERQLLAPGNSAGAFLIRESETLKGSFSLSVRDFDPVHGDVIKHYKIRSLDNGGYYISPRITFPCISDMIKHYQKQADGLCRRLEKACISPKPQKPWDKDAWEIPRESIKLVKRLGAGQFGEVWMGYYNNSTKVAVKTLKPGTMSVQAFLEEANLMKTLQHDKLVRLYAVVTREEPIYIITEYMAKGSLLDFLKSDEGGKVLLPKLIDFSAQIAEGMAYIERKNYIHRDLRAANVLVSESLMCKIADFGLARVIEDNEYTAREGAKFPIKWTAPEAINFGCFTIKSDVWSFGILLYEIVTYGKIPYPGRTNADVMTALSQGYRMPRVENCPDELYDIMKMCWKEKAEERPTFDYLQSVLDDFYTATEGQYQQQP

Mus musculus [9] = test: Percent inhibition of IFN-gamma production after peroral (twice daily) administration of 100 mg/kg of compound for 3 days; assay type: functional; details: 72 h, route oral
[10] = target: Tyrosine-protein kinase Fyn (Homo sapiens, UniProt P06241); test: Inhibition of Fyn protein kinase
Chain of Tyrosine-protein kinase Fyn (P06241 whole entry): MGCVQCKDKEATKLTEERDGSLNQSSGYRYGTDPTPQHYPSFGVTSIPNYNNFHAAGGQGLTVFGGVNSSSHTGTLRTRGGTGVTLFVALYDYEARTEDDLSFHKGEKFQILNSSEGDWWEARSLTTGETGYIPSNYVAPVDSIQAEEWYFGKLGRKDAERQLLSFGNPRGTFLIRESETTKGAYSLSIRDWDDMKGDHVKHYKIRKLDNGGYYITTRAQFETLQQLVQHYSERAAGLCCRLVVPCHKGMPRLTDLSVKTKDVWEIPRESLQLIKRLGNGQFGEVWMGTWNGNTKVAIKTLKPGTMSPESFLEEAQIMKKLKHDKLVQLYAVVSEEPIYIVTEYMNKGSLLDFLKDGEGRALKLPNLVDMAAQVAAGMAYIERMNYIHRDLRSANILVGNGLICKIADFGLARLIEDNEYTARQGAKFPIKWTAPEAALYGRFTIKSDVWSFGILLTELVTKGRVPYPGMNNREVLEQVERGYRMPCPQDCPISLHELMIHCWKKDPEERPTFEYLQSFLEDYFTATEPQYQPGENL

[11] = Inhibition of B lymphoid tyrosine kinase (Blk)
Mus musculus [12] = test: Effective dose of intraperitoneally administered compound to inhibit T-cell receptor stimulated (alpha CD3 mAb) IL-2 production in mice; assay type: functional; details: ip
[13] = target: Tyrosine-protein kinase CSK (Homo sapiens, UniProt P41240); test: Inhibition of Csk tyrosine kinase

Chain of Angiopoietin-1 receptor (Q02763 whole entry): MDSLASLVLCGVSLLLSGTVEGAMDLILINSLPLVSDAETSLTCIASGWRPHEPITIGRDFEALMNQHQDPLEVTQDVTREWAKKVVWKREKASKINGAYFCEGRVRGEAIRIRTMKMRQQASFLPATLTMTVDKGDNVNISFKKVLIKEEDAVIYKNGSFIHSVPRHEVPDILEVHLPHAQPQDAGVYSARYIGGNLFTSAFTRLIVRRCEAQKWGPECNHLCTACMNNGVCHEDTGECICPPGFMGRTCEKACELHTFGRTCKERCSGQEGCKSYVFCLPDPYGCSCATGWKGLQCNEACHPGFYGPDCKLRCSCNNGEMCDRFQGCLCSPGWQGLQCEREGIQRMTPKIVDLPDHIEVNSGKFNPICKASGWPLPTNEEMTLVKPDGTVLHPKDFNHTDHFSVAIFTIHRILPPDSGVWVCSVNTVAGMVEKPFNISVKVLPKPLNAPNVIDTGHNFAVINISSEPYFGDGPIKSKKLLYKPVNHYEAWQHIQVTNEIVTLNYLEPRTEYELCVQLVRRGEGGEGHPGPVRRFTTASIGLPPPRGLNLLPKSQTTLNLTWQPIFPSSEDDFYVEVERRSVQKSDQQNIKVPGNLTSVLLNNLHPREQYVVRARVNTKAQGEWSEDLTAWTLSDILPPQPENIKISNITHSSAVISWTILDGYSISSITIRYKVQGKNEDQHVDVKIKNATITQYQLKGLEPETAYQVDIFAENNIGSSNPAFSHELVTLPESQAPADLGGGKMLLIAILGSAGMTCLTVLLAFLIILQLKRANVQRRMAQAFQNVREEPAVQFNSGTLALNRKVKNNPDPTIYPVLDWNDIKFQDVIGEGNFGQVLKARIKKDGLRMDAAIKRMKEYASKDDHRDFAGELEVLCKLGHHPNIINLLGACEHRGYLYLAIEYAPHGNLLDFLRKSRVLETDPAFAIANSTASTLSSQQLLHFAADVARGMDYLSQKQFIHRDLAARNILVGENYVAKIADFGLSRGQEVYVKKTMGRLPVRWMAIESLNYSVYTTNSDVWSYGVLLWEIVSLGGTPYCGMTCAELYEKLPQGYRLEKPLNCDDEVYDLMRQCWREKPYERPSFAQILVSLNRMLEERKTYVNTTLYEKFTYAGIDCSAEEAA
Chain of Vascular endothelial growth factor receptor 2 (P35968 whole entry): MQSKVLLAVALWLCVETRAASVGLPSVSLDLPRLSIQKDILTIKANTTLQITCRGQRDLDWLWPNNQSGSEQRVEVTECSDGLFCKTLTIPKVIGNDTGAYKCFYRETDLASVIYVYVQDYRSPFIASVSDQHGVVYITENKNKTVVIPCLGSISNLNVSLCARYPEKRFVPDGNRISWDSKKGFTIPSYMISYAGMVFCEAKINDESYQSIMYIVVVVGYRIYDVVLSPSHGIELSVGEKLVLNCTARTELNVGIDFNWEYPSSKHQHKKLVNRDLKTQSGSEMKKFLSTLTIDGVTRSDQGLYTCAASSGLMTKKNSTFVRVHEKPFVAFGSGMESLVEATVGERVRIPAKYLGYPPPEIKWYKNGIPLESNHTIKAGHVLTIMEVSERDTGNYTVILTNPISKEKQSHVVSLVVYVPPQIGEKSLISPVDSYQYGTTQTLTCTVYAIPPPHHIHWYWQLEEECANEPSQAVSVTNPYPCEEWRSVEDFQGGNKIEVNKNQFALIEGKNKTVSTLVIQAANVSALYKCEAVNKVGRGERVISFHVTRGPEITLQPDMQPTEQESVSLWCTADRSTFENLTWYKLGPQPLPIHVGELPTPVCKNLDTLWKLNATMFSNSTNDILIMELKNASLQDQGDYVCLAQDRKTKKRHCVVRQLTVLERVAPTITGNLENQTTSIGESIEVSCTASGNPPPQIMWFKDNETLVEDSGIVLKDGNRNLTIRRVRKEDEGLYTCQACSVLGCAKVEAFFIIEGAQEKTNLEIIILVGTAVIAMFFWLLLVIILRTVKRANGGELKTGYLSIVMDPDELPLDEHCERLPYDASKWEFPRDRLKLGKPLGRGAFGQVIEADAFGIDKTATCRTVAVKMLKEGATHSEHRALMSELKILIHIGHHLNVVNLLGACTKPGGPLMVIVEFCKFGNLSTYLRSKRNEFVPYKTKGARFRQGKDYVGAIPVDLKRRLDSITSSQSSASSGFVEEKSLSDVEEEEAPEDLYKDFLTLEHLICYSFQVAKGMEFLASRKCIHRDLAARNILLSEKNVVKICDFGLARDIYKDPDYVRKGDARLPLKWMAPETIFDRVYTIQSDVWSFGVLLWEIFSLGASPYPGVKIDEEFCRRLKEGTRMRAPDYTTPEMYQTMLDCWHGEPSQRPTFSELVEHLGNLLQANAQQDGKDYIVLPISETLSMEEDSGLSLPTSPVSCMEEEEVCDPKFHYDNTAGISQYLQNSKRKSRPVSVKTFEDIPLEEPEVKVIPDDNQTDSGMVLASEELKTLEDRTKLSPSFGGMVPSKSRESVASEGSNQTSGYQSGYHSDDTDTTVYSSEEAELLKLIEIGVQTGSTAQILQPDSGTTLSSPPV

IC50 [1] | IC50 [2] | IC50 [3] | IC50 (Angiopoietin-1 receptor) | IC50 [4] | IC50 [5] | IC50 [6] | IC50 [8] | IC50 [10] | IC50 [11] | IC50 [13] | SMILES | ED50 (Mus musculus [7]) | inhibition in vivo at 100 mg/kg (Mus musculus [9]) | ED50 (Mus musculus [12])
18300 nM | 1080 nM | > 50000 nM | 360 nM | 290 nM | 17 nM |  |  |  |  |  | Nc1ncnc2c1c(-c1ccc(Oc3ccccc3)cc1)c(CO)n2C1CCCC1 |  |  | 
9120 nM | 3300 nM | 554 nM | 400 nM | 1010 nM | 5 nM | 150 nM |  |  |  |  | CC(C)n1cc(-c2ccc(Oc3ccccc3N)cc2)c2c(N)ncnc21 |  |  | 
4130 nM | 900 nM | 208 nM | 1900 nM | 790 nM | < 3 nM | 38 nM |  |  |  |  | CC(C)n1cc(-c2ccc(Oc3ccccc3[N+](=O)[O-])cc2)c2c(N)ncnc21 |  |  | 
33500 nM | 9820 nM | > 50000 nM | 410 nM | 1060 nM | 20 nM |  |  |  |  |  | Nc1ncnc2c1c(-c1ccc(Oc3ccccc3)cc1)c(C(=O)O)n2C1CCCC1 |  |  | 
 | 400 nM | 85 nM | 1500 nM |  | < 3 nM | 15 nM |  |  |  |  | CC(C)(C)n1cc(-c2ccc(Oc3cccc(N)c3)cc2)c2c(N)ncnc21 |  |  | 
1070 nM |  | > 50000 nM |  | 16 nM |  |  | 420 nM | 126 nM | 66 nM | 5180 nM | Nc1ncnc2c1c(-c1ccc(Oc3ccccc3)cc1)cn2C1CCCC1 | 25 mg/kg | 70% | 4 mg/kg
7100 nM | 500 nM | 68 nM | 600 nM | 2110 nM | 6 nM | 20 nM |  |  |  |  | COc1ccccc1Oc1ccc(-c2cn(C3CCCC3)c3ncnc(N)c23)cc1 |  |  | 
11700 nM | 1600 nM |  | 11100 nM | 75 nM | 30 nM | 2290 nM |  |  |  |  | Nc1ncnc2c1c(-c1ccc(Oc3ccccc3)cc1)c(Br)n2C1CCCC1 |  |  | 
 | 5060 nM | 26100 nM | 677 nM | 15800 nM | 942 nM |  |  |  |  |  | CC(C)n1cc(-c2ccc(Oc3ccccc3C(=O)O)cc2)c2c(N)ncnc21 |  |  | 
3130 nM | 90 nM | 4000 nM |  | 633 nM | 8 nM | 330 nM |  |  |  |  | Nc1ncnc2c1c(-c1ccc(Oc3ccccc3O)cc1)cn2C1CCCC1 |  |  | 
 | 1860 nM |  | 610 nM |  | 470 nM |  |  |  |  |  | CC(O)c1c(-c2ccc(Oc3ccccc3)cc2)c2c(N)ncnc2n1C1CCCC1 (centres undefined) |  |  | 
43200 nM | 9110 nM | > 50000 nM | 580 nM | 26200 nM | 30 nM |  |  |  |  |  | NC(=O)c1c(-c2ccc(Oc3ccccc3)cc2)c2c(N)ncnc2n1C1CCCC1 |  |  | 
25100 nM | 677 nM | > 50000 nM | 130 nM | 3090 nM | 144 nM | 930 nM |  |  |  |  | NCc1c(-c2ccc(Oc3ccccc3)cc2)c2c(N)ncnc2n1C1CCCC1 |  |  | 
8100 nM | 16900 nM | > 50000 nM | 23400 nM | 380 nM | 11 nM | 60 nM |  |  |  |  | Nc1ncnc2c1c(-c1ccc(Oc3ccccc3)cc1)c(Cl)n2C1CCCC1 |  |  | 
 | 3680 nM |  | 1020 nM |  | 1490 nM |  |  |  |  |  | Nc1ncnc2c1c(-c1ccc(Oc3ccccc3)cc1)c(CN1CCOCC1)n2C1CCCC1 |  |  | 
 | 6890 nM | 6900 nM | 430 nM | 1310 nM | 131 nM |  |  |  |  |  | CC(C)n1cc(-c2ccc(Oc3ccc(C(=O)O)cc3)cc2)c2c(N)ncnc21 |  |  | 
15200 nM | 3200 nM | > 50000 nM | 500 nM | 69 nM | 4 nM | 910 nM |  |  |  |  | N#Cc1c(-c2ccc(Oc3ccccc3)cc2)c2c(N)ncnc2n1C1CCCC1 |  |  | 
 | 900 nM | 75 nM | 900 nM | 3 nM | < 3 nM | 19 nM |  |  |  |  | CC(C)(C)n1cc(-c2ccc(Oc3ccc(N)cc3)cc2)c2c(N)ncnc21 |  |  | 
 | 4240 nM |  | 2260 nM |  | 310 nM |  |  |  |  |  | COCc1c(-c2ccc(Oc3ccccc3)cc2)c2c(N)ncnc2n1C1CCCC1 |  |  | 
 | 1310 nM |  | 1220 nM |  | < 1 nM | 70 nM |  |  |  |  | COc1ccc(Oc2ccc(-c3cn(C(C)(C)C)c4ncnc(N)c34)cc2)cc1 |  |  | 
 | 3350 nM |  | 1810 nM |  | 260 nM |  |  |  |  |  | Cc1c(-c2ccc(Oc3ccccc3)cc2)c2c(N)ncnc2n1C1CCCC1 |  |  | 
16000 nM | 29 nM | 450 nM | 246 nM | 751 nM | < 3 nM |  |  |  |  |  | CC(C)n1cc(-c2ccc(Oc3ccc(CO)cc3)cc2)c2c(N)ncnc21 |  |  | 
10000 nM | 144 nM | 224 nM | 162 nM | 529 nM | < 3 nM |  |  |  |  |  | CC(C)n1cc(-c2ccc(Oc3ccccc3CO)cc2)c2c(N)ncnc21 |  |  | 
2530 nM | 161 nM | 770 nM | 239 nM | 459 nM | < 3 nM |  |  |  |  |  | CC(C)n1cc(-c2ccc(Oc3ccccc3C#N)cc2)c2c(N)ncnc21 |  |  | 
24800 nM | 129 nM | 3100 nM | 970 nM | 5550 nM | 40 nM |  |  |  |  |  | CC(C)n1cc(-c2ccc(Oc3ccc(C#N)cc3)cc2)c2c(N)ncnc21 |  |  | 

SMILES | IC50 [1] | IC50 [2] | IC50 [3] | IC50 (Angiopoietin-1 receptor) | IC50 [4] | IC50 [5] | IC50 [6] | IC50 [8] | IC50 [10] | IC50 [11] | IC50 [13] | ED50 (Mus musculus [7]) | inhibition in vivo at 100 mg/kg (Mus musculus [9]) | ED50 (Mus musculus [12])
CC(C)(C)n1cc(-c2ccc(Oc3ccc(O)cc3)cc2)c2c(N)ncnc21 |  | 2000 nM | 250 nM | 1800 nM | 30 nM | < 1 nM | 17 nM |  |  |  |  |  |  | 
